{"source": "patent US20210401862A1", "about": "“METHODS FOR MODULATING CORTICOSTERONE LEVELS IN PSYCHOLOGICALLY STRESSED INDIVIDUALS” (ABBOTT LABORATORIES, priority 2012, published 2021)", "tested_on": "early stressed maternally deprived mice", "assay": "Serum stress hormones after acute restraint stress in maternally separated (early stressed) mice fed experimental diets", "format": "in vivo, C57BL/6 mice", "method": "In this Example, the effects of 2-fucosyl-lactose on the production of serum corticosterone in early stressed maternally deprived mice were analyzed. Initially, mice pups were early stressed using a model of maternal separation. Particularly, one day after delivery, C57BL/6 mice pups were sexed and grouped as sham (non-stressed Control group) or maternally separated (MS—stressed group) animals. From day 2 until day 14 after delivery, the MS pups were removed from the dam and kept isolated for a period of 4 hours per day, typically, from 10:00 AM to 2:00 PM, in a thermostatted cup. During the same time period, pups from the sham group were daily handled for a period of five minutes in order to receive the same grade of habituation to a researcher's hands as the MS pups. Each dam had litters of 4 males and 2 females. Females were allowed to stay with the mother, while males were maternally deprived in order to avoid stressing the dam by removing all of the pups. Additionally, pups from the MS group were prematurely weaned, and thus permanently removed from the dam, at postnatal day 17, whereas sham pups were not weaned until postnatal day 21. At postnatal day 22, all pups in the MS group were pooled and four experimental groups were made before starting nutritional intervention. [table] At the nutritional intervention stage, mice were fed experimental diets for a period of eight weeks. After eight weeks, blood samples were taken from facial veins of the mice in order to measure basal stress hormones (i.e., corticosterone, adrenocorticotropic hormone (ACTH), and melatonin). Stress hormones were measured using luminex technology using a multiplex commercial kit (commercially available from Millipore Corporation, Billerica, Mass.) Seven days later, mice were submitted to an acute stress by restraint protocol. Particularly, mice were placed into a multi-drilled 50-ml centrifuge tube for 20 minutes. After this time, mice were extracted from the tube, and again, blood samples were taken in order to measure serum stress hormones immediately after the acute stressful event (i.e., restraint).", "key": {"[1]": {"details": "MS-stressed mice, supplemented diet about 7 mg/mouse/day, post-restraint, stated for any of the experimental groups"}}}
{"substance": "2-fucosyl-lactose [2-fucosyllactose]", "values": [{"measurement": "serum corticosterone levels in response to restraint, compared with MS mice on the control diet", "setting": "AIN93G diet with about 7 mg/mouse/day for eight weeks, blood taken immediately after 20 minutes restraint, Group C vs MS control Group D", "value": "significantly lower"}, {"measurement": "serum corticosterone levels in response to restraint, compared with normal sham mice", "setting": "MS-stressed mice, AIN93G diet with about 7 mg/mouse/day for eight weeks, blood taken immediately after 20 minutes restraint, Group C vs sham Group E", "value": "equal that of the normal sham mice"}, {"measurement": "ACTH serum levels post-restraint", "setting": "[1]", "value": "no effects"}, {"measurement": "melatonin serum levels post-restraint", "setting": "[1]", "value": "no effects"}]}
